Laboratory results as given in ChEMBL document CHEMBL4665624, “Synthesis of 5-(4-(1H-phenanthro[9,10-d]imidazol-2-yl)benzylidene)thiazolidine-2,4-dione as promising DNA and serum albumin-binding agents and evaluation of antitumor activity” (Eur J Med Chem, 2019).

Columns and labels:
[1] = tested on: 786-0; test: Antitumor activity against human 786-0 cells assessed as cell growth inhibition at 10 uM incubated for 48 hrs by sulforhodamine B assay; type: functional; settings: read-out: GI
[2] = tested on: U-251; test: Antitumor activity against human U251 cells assessed as cell growth inhibition at 10 uM incubated for 48 hrs by sulforhodamine B assay; type: functional; settings: read-out: GI
[3] = tested on: PC-3; test: Antitumor activity against human PC-3 cells assessed as cell growth inhibition at 10 uM incubated for 48 hrs by sulforhodamine B assay; type: functional; settings: read-out: GI
[4] = tested on: SR; test: Antitumor activity against human SR cells assessed as cell growth inhibition at 10 uM incubated for 48 hrs by sulforhodamine B assay; type: functional; settings: read-out: GI
[5] = tested on: OVCAR-4; test: Antitumor activity against human OVCAR-4 cells assessed as cell growth inhibition at 10 uM incubated for 48 hrs by sulforhodamine B assay; type: functional; settings: read-out: GI
[6] = tested on: NCI-H226; test: Antitumor activity against human NCI-H226 assessed as cell growth inhibition at 10 uM incubated for 48 hrs by sulforhodamine B assay; type: functional; settings: read-out: GI
[7] = tested on: IGROV-1; test: Antitumor activity against human IGROV1 cells assessed as cell growth inhibition at 10 uM incubated for 48 hrs by sulforhodamine B assay; type: functional; settings: read-out: GI
[8] = tested on: HCT-15; test: Antitumor activity against human HCT15 cells assessed as cell growth inhibition at 10 uM incubated for 48 hrs by sulforhodamine B assay; type: functional; settings: read-out: GI
[9] = tested on: SN12C; test: Antitumor activity against human SN12C cells assessed as cell growth inhibition at 10 uM incubated for 48 hrs by sulforhodamine B assay; type: functional; settings: read-out: GI
[10] = tested on: HOP-92; test: Antitumor activity against human HOP92 cells assessed as cell growth inhibition at 10 uM incubated for 48 hrs by sulforhodamine B assay; type: functional; settings: read-out: GI
[11] = tested on: SK-OV-3; test: Antitumor activity against human SK-OV-3 cells assessed as cell growth inhibition at 10 uM incubated for 48 hrs by sulforhodamine B assay; type: functional; settings: read-out: GI
[12] = tested on: COLO 205; test: Antitumor activity against human COLO205 cells assessed as cell growth inhibition at 10 uM incubated for 48 hrs by sulforhodamine B assay; type: functional; settings: read-out: GI
[13] = tested on: A498; test: Antitumor activity against human A498 cells assessed as cell growth inhibition at 10 uM incubated for 48 hrs by sulforhodamine B assay; type: functional; settings: read-out: GI
[14] = tested on: HT-29; test: Antitumor activity against human HT-29 cells assessed as cell growth inhibition at 10 uM incubated for 48 hrs by sulforhodamine B assay; type: functional; settings: read-out: GI
[15] = tested on: MCF7; test: Antitumor activity against human MCF7 cells assessed as cell growth inhibition at 10 uM incubated for 48 hrs by sulforhodamine B assay; type: functional; settings: read-out: GI
[16] = tested on: K562; test: Antitumor activity against human K562 cells assessed as cell growth inhibition at 10 uM incubated for 48 hrs by sulforhodamine B assay; type: functional; settings: read-out: GI
[17] = tested on: Malme-3M; test: Antitumor activity against human MALME-3M cells assessed as cell growth inhibition at 10 uM incubated for 48 hrs by sulforhodamine B assay; type: functional; settings: read-out: GI
[18] = tested on: EKVX; test: Antitumor activity against human EKVX cells assessed as cell growth inhibition at 10 uM incubated for 48 hrs by sulforhodamine B assay; type: functional; settings: read-out: GI
[19] = tested on: HCT-116; test: Antitumor activity against human HCT116 cells assessed as cell growth inhibition at 10 uM incubated for 48 hrs by sulforhodamine B assay; type: functional; settings: read-out: GI
[20] = tested on: MDA-MB-468; test: Antitumor activity against human MDA-MB-468 cells assessed as cell growth inhibition at 10 uM incubated for 48 hrs by sulforhodamine B assay; type: functional; settings: read-out: GI
[21] = tested on: HCC 2998; test: Antitumor activity against human HCC2998 cells assessed as cell growth inhibition at 10 uM incubated for 48 hrs by sulforhodamine B assay; type: functional; settings: read-out: GI
[22] = tested on: M14; test: Antitumor activity against human M14 cells assessed as cell growth inhibition at 10 uM incubated for 48 hrs by sulforhodamine B assay; type: functional; settings: read-out: GI
[23] = tested on: HL-60(TB); test: Antitumor activity against human HL-60(TB) cells assessed as cell growth inhibition at 10 uM incubated for 48 hrs by sulforhodamine B assay; type: functional; settings: read-out: GI
[24] = tested on: OVCAR-3; test: Antitumor activity against human OVCAR-3 cells assessed as cell growth inhibition at 10 uM incubated for 48 hrs by sulforhodamine B assay; type: functional; settings: read-out: GI
[25] = tested on: ACHN; test: Antitumor activity against human ACHN cells assessed as cell growth inhibition at 10 uM incubated for 48 hrs by sulforhodamine B assay; type: functional; settings: read-out: GI
[26] = tested on: NCI-H23; test: Antitumor activity against human NCI-H23 cells assessed as cell growth inhibition at 10 uM incubated for 48 hrs by sulforhodamine B assay; type: functional; settings: read-out: GI
[27] = tested on: NCI/ADR-RES; test: Antitumor activity against human NCI/ADR-RES cells assessed as cell growth inhibition at 10 uM incubated for 48 hrs by sulforhodamine B assay; type: functional; settings: read-out: GI
[28] = tested on: RPMI-8226; test: Antitumor activity against human RPMI8226 cells assessed as cell growth inhibition at 10 uM incubated for 48 hrs by sulforhodamine B assay; type: functional; settings: read-out: GI
[29] = tested on: LOX IMVI; test: Antitumor activity against human LOX IMVI cells assessed as cell growth inhibition at 10 uM incubated for 48 hrs by sulforhodamine B assay; type: functional; settings: read-out: GI
[30] = tested on: BT-549; test: Antitumor activity against human BT-549 cells assessed as cell growth inhibition at 10 uM incubated for 48 hrs by sulforhodamine B assay; type: functional; settings: read-out: GI
[31] = tested on: OVCAR-8; test: Antitumor activity against human OVCAR-8 cells assessed as cell growth inhibition at 10 uM incubated for 48 hrs by sulforhodamine B assay; type: functional; settings: read-out: GI
[32] = tested on: SW-620; test: Antitumor activity against human SW620 cells assessed as cell growth inhibition at 10 uM incubated for 48 hrs by sulforhodamine B assay; settings: SW-620, 48 h, read-out: GI
[33] = tested on: MDA-MB-435; test: Antitumor activity against human MDA-MB-435 cells assessed as cell growth inhibition at 10 uM incubated for 48 hrs by sulforhodamine B assay; type: functional; settings: read-out: GI
[34] = tested on: UO-31; test: Antitumor activity against human UO-31 cells assessed as cell growth inhibition at 10 uM incubated for 48 hrs by sulforhodamine B assay; type: functional; settings: read-out: GI
[35] = tested on: Hs-578T; test: Antitumor activity against human HS 578T cells assessed as cell growth inhibition at 10 uM incubated for 48 hrs by sulforhodamine B assay; type: functional; settings: read-out: GI
[36] = tested on: NCI-H460; test: Antitumor activity against human NCI-H460 assessed as cell growth inhibition at 10 uM incubated for 48 hrs by sulforhodamine B assay; type: functional; settings: read-out: GI
[37] = tested on: SF-268; test: Antitumor activity against human SF268 cells assessed as cell growth inhibition at 10 uM incubated for 48 hrs by sulforhodamine B assay; type: functional; settings: read-out: GI
[38] = tested on: NCI-H522; test: Antitumor activity against human NCI-H522 cells assessed as cell growth inhibition at 10 uM incubated for 48 hrs by sulforhodamine B assay; type: functional; settings: read-out: GI
[39] = tested on: MDA-MB-231; test: Antitumor activity against human MDA-MB-231/ATCC cells assessed as cell growth inhibition at 10 uM incubated for 48 hrs by sulforhodamine B assay; type: functional; settings: read-out: GI
[40] = tested on: RXF 393; test: Antitumor activity against human RXF 393 cells assessed as cell growth inhibition at 10 uM incubated for 48 hrs by sulforhodamine B assay; type: functional; settings: read-out: GI
[41] = tested on: CCRF-CEM; test: Antitumor activity against human CCRF-CEM cells assessed as cell growth inhibition at 10 uM incubated for 48 hrs by sulforhodamine B assay; type: functional; settings: read-out: GI
[42] = tested on: KM12; test: Antitumor activity against human KM12 cells assessed as cell growth inhibition at 10 uM incubated for 48 hrs by sulforhodamine B assay; type: functional; settings: read-out: GI
[43] = tested on: MOLT-4; test: Antitumor activity against human MOLT4 cells assessed as cell growth inhibition at 10 uM incubated for 48 hrs by sulforhodamine B assay; type: functional; settings: read-out: GI
[44] = tested on: SNB-19; test: Antitumor activity against human SNB-19 cells assessed as cell growth inhibition at 10 uM incubated for 48 hrs by sulforhodamine B assay; type: functional; settings: read-out: GI
[45] = tested on: UACC-62; test: Antitumor activity against human UACC-62 cells assessed as cell growth inhibition at 10 uM incubated for 48 hrs by sulforhodamine B assay; type: functional; settings: read-out: GI
[46] = tested on: SF-295; test: Antitumor activity against human SF295 cells assessed as cell growth inhibition at 10 uM incubated for 48 hrs by sulforhodamine B assay; type: functional; settings: read-out: GI
[47] = tested on: SK-MEL-28; test: Antitumor activity against human SK-MEL-28 cells assessed as cell growth inhibition at 10 uM incubated for 48 hrs by sulforhodamine B assay; type: functional; settings: read-out: GI
[48] = tested on: SNB-75; test: Antitumor activity against human SNB-75 cells assessed as cell growth inhibition at 10 uM incubated for 48 hrs by sulforhodamine B assay; type: functional; settings: read-out: GI

For Oc1ccccc1-c1nc2c3ccccc3c3ccccc3c2[nH]1, the inhibition of growth at 10 µM [1] was under 10%, the inhibition of growth at 10 µM [2] was under 10% and the inhibition of growth at 10 µM [3] was 11.8%. It also gave an inhibition of growth at 10 µM [4] of 10.8%, an inhibition of growth at 10 µM [5] of under 10% and an inhibition of growth at 10 µM [6] of 11.6%. It also gave an inhibition of growth at 10 µM [7] of 23.5%, an inhibition of growth at 10 µM [8] of under 10% and an inhibition of growth at 10 µM [9] of 24.4%. For the same molecule, the inhibition of growth at 10 µM [10] was 16.4%, the inhibition of growth at 10 µM [11] was under 10% and the inhibition of growth at 10 µM [12] was under 10%. It also gave an inhibition of growth at 10 µM [13] of under 10%, an inhibition of growth at 10 µM [14] of under 10% and an inhibition of growth at 10 µM [15] of 26.3%. It also gave an inhibition of growth at 10 µM [16] of 12.1%, an inhibition of growth at 10 µM [17] of under 10% and an inhibition of growth at 10 µM [18] of 19.4%. It also gave an inhibition of growth at 10 µM [19] of 12.3%, an inhibition of growth at 10 µM [20] of under 10% and an inhibition of growth at 10 µM [21] of under 10%. For the same molecule, the inhibition of growth at 10 µM [22] was under 10%, the inhibition of growth at 10 µM [23] was under 10% and the inhibition of growth at 10 µM [24] was under 10%. For the same molecule, the inhibition of growth at 10 µM [25] was 11.7%, the inhibition of growth at 10 µM [26] was 10.7% and the inhibition of growth at 10 µM [27] was under 10%. For the same molecule, the inhibition of growth at 10 µM [28] was 13.3%, the inhibition of growth at 10 µM [29] was under 10% and the inhibition of growth at 10 µM [30] was under 10%. The inhibition of growth at 10 µM [31] was under 10%, the inhibition of growth at 10 µM [32] was under 10% and the inhibition of growth at 10 µM [33] was under 10%. The inhibition of growth at 10 µM [34] was 37.9%, the inhibition of growth at 10 µM [35] was under 10% and the inhibition of growth at 10 µM [36] was under 10%. The inhibition of growth at 10 µM [37] was under 10%, the inhibition of growth at 10 µM [38] was under 10% and the inhibition of growth at 10 µM [39] was 23.8%. The inhibition of growth at 10 µM [40] was under 10%, the inhibition of growth at 10 µM [41] was under 10% and the inhibition of growth at 10 µM [42] was under 10%. The inhibition of growth at 10 µM [43] was under 10%, the inhibition of growth at 10 µM [44] was under 10% and the inhibition of growth at 10 µM [45] was 10.1%. For the same molecule, the inhibition of growth at 10 µM [46] was under 10%, the inhibition of growth at 10 µM [47] was under 10% and the inhibition of growth at 10 µM [48] was 11.1%.
